From patent US11802258B2, “Perfume precursor” (TAKASAGO INTERNATIONAL CORPORATION, priority 2017, dated 2023)

How the values were obtained:
[1] = system: Staphylococcus aureus NBRC12732; test: Scent emission test by microorganism, Staphylococcus aureus; assay type: cell-based; conditions: GC/MS head space peak area minus control culture; 10 mg fragrance precursor in 3 mL culture solution, 30° C., 20 hours
Description: (§1) Culture of Staphylococcus aureus strain NBRC12732, Corynebacterium xerosis strain JCM1324, Pseudomonas aeruginosa strain NBRC13275, and Moraxella osloensis strain ATCC19976:
(§2) After inoculating each of bacteria in Muller-Hinton liquid medium, shaking culture was performed at 30° C. for 20 hours, and 3 mL of the resulting preculture solution was transferred to a vial bottle. 10 mg of each of the fragrance precursors was mixed therewith and after hermetical sealing, shaking culture was further performed at 30° C. for 20 hours.
(§3) A peak area of the scent-emitting compound was obtained by performing GC/MS analysis of the head space component included in the vial bottle containing 3 mL of a microorganism culture solution in which 10 mg of the fragrance precursor was mixed. A microorganism culture solution having not mixed therein the fragrance precursor was used as the control, and a peak area of the control was obtained by the same method. The scent emission amount was determined from the difference between the obtained peak area of the scent-emitting compound and the peak area of the control.
(§4) Measurement instrument: 7890GC/5975MSD (manufactured by Agilent Technologies) • Column: BC-WAX 50 m×0.25 mm I.D. • Temperature rise: 70° C. to 220° C., 4° C./min • Split ratio: splitless

[2] = system: lipase preparation AY “Amano” 30SD; test: Lipase-induced scent emission test, lipase preparation AY “Amano” 30SD; assay type: biochemical; conditions: GC/MS head space peak area of scent-emitting compound minus water control; 10 mg fragrance precursor + 1 g aqueous 1% lipase preparation solution
Description: (§5) 10 mg of a fragrance precursor and 1 g of an aqueous 1% lipase preparation solution were put in a vial bottle and mixed and after hermetically sealing the bottle, the mixture was subjected to GC/MS analysis of the head space component to obtain a peak area of the scent-emitting compound. As a control, water was used in place of the aqueous 1% lipase preparation solution, and a peak area of the control was obtained by the same method. The scent emission amount was determined from the difference between the obtained peak area of the scent-emitting compound and the peak area of the control.
(§6) (GC/MS Measurement Conditions)
(§7) Measurement instrument: 7890GC/5975M (manufactured by Agilent Technologies) • Column: BC-WAX50 m×0.25 mm I.D. • Temperature rise: 70° C. to 220° C., 4° C./min • Split ratio: 60:1

[3] = target: T1, lipase preparation Lipex 100 L (Thermomyces lanuginosus, UniProt O59952, N255R/T253R); test: Lipase-induced scent emission test, lipase preparation Lipex 100 L; assay type: biochemical; conditions: for Scent Emission Amount: GC/MS head space peak area of scent-emitting compound minus water control, 10 mg fragrance precursor + 1 g aqueous 1% lipase preparation solution; for Scent-Emitting Compound: compound released, GC/MS of head space
T1 construct: purchased Novozymes Lipex 100 L
T1 sequence (O59952 23-291 T253R/N255R): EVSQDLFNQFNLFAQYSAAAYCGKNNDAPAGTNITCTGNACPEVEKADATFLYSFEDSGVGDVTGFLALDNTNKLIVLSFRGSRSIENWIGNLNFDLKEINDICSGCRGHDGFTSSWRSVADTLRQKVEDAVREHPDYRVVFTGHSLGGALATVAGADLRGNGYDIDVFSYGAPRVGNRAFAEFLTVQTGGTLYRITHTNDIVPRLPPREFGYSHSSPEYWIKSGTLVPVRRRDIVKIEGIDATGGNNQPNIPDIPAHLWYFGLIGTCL
Description: as §5, §6, §7

[4] = system: Propionibacterium acnes JCM6473; test: Scent emission test by microorganism, Propionibacterium acnes; assay type: cell-based; conditions: GC/MS head space peak area minus control culture; 10 mg fragrance precursor in 3 mL culture solution, static culture 28° C., 3 days
Description: Culture of Propionibacterium acnes Strain JCM6473:
(§8) After inoculating the bacterium in GAM bouillon liquid medium containing Hemin 0.5 ppm and Menadione 0.5 ppm, static culture was performed at 28° C. for 3 days under anaerobic conditions, and 3 mL of the resulting preculture solution was transferred to a vial bottle. 10 mg of each of the fragrance precursors was mixed therewith and after hermetical sealing, static culture was further performed at 28° C. for 3 days.
as §3, §4

[5] = system: Malassezia furfur NBRC0656; test: Scent emission test by microorganism, Malassezia furfur; assay type: cell-based; conditions: GC/MS head space peak area minus control culture; 10 mg fragrance precursor in 3 mL culture solution, static culture 28° C., 3 days
Description: Culture of Malassezia furfur Strain NBRC0656:
as §8, with “Sabouraud” for “GAM bouillon”, “0.1% Tween 80,” for “Hemin 0.5 ppm and Menadione 0.5 ppm,”, “of” for “of each of”, “precursor” for “precursors”
as §3, §4

[6] = system: Moraxella osloensis ATCC19976; test: Scent emission test by microorganism, Moraxella osloensis; assay type: cell-based; conditions: GC/MS head space peak area minus control culture; 10 mg fragrance precursor in 3 mL culture solution, 30° C., 20 hours
Description: as §1, §2, §3, §4

[7] = system: Pseudomonas aeruginosa NBRC13275; test: Scent emission test by microorganism, Pseudomonas aeruginosa; assay type: cell-based; conditions: GC/MS head space peak area minus control culture; 10 mg fragrance precursor in 3 mL culture solution, 30° C., 20 hours
Description: as §1, §2, §3, §4

[8] = system: Corynebacterium xerosis JCM1324; test: Scent emission test by microorganism, Corynebacterium xerosis; assay type: cell-based; conditions: GC/MS head space peak area minus control culture; 10 mg fragrance precursor in 3 mL culture solution, 30° C., 20 hours
Description: as §1, §2, §3, §4

For `CC/C=C\CCOC(=O)c1ccccc1O` [(Z)-3-hexenyl salicylate], the “Scent Emission Amount” value [1] was 14,126,965 and the “Scent Emission Amount” value [2] was 16,933,990.

For `CC(C)=CCC[C@H](C)CCOC(=O)c1ccccc1` [Example 1, 3,7-dimethyl-6-octenyl benzoate], the “Scent Emission Amount” value [3] was 28,098,876 and the “Scent-Emitting Compound” value [3] was “citronellol”.

In the case of `CCCC(CC[C@@H]1[C@@H](C)CCCC1(C)C)OC(=O)c1ccc(OC)cc1` (stereo partly drawn) [Example 3, 1-((R,6S)-2,2,6-trimethylcyclohexyl)-3-hexanyl Anisate], the “Scent Emission Amount” value [3] is reported as 40,430,750 and the “Scent Emission Amount” value [2] is reported as 40,373,157.

`CC(C)[C@@H]1CC[C@@H](C)C[C@H]1OC(=O)c1ccccc1` [Example 6, (1R,2S,5R)-isopropyl-5-methylcyclohexyl benzoate] was tested, and the “Scent Emission Amount” value [2] was 82,023,336.

In the case of `CC(C)=CCC/C(C)=C/CC[C@H](C)CCOC(=O)c1ccccc1` [Example 7, (S,E)-3,7,11-trimethyl-6,10-dodecadienyl Benzoate], the “Scent Emission Amount” value [2] is reported as 88,986,381.

In the case of `COc1ccc(C(=O)OCC[C@@H](C)CC/C=C(\C)CCC=C(C)C)cc1` [Example 8, (S,E)-3,7,11-trimethyl-6,10-dodecadienyl Anisate], the “Scent Emission Amount” value [2] is reported as 23,338,647.

With `CC(C)=CCC/C(C)=C/CC[C@H](C)CCOC(=O)/C=C/c1ccccc1` [Example 10, (S,E)-3,7,11-trimethyl-6,10-dodecadienyl Cinnamate] the “Scent Emission Amount” value [3] was 19,967,420 and the “Scent-Emitting Compound” value [3] was “dihydrofarnesol”.

`CC/C=C\CCOC(=O)c1ccccc1` [Example 11, (Z)-3-hexenyl Benzoate] was tested, and the “Scent Emission Amount” value [2] was 49,663,459.

With `C=CCc1ccc(OC(=O)c2ccccc2)c(OC)c1` [Example 12, 4-allyl-2-methoxyphenyl benzoate] the “Scent Emission Amount” value [3] was 164,744,420 and the “Scent-Emitting Compound” value [3] was “eugenol”.

`COc1cc(C=O)ccc1OC(=O)c1ccccc1` [Example 13, 4-formyl-2-methoxyphenyl Benzoate] was tested, and the “Scent Emission Amount” value [3] was 47,188,750 and the “Scent-Emitting Compound” value [3] was “vanillin”.

`C=CCCCCCCCCOC(=O)c1ccccc1` [Example 14, 9-decenyl Benzoate] was tested, and the “Scent Emission Amount” value [4] was 133,440,692, the “Scent Emission Amount” value [5] was 304,030,021 and the “Scent Emission Amount” value [6] was 86,274,718.

For `O=C(C=Cc1ccccc1)OCC=Cc1ccccc1` [cinnamyl cinnamate], the “Scent Emission Amount” value [2] was 24,711,289.

For `CC(C)=CCCC(C)CCOC(=O)Cc1ccccc1` (stereo not drawn) [citronellyl phenylacetate], the “Scent Emission Amount” value [4] was 292,401,763, the “Scent Emission Amount” value [7] was 150,385,642 and the “Scent Emission Amount” value [5] was 369,118,269. The “Scent Emission Amount” value [6] was 500,940,481.

For `CC(C)=CCC/C(C)=C/COC(=O)c1ccccc1` [geranyl benzoate], the “Scent Emission Amount” value [4] was 105,061,217, the “Scent Emission Amount” value [1] was 839,961,157 and the “Scent Emission Amount” value [7] was 117,161,311. For the same compound, the “Scent Emission Amount” value [5] was 121,633,184 and the “Scent Emission Amount” value [2] was 78,461,812.

For `CC(C)=CCC/C(C)=C/COC(=O)Cc1ccccc1` [geranyl phenylacetate], the “Scent Emission Amount” value [8] was 39,033,900 and the “Scent Emission Amount” value [2] was 54,842,763.

In the case of `O=C(OCCc1ccccc1)c1ccccc1` [phenylethyl benzoate], the “Scent Emission Amount” value [2] is reported as 96,460,830.

With `O=C(C=Cc1ccccc1)OCCc1ccccc1` [phenylethyl cinnamate] the “Scent Emission Amount” value [4] was 112,497,882, the “Scent Emission Amount” value [1] was 144,750,281 and the “Scent Emission Amount” value [7] was 247,508,719. The “Scent Emission Amount” value [5] was 351,450,490 and the “Scent Emission Amount” value [2] was 22,892,002.

In the case of `O=C(Cc1ccccc1)OCCc1ccccc1` [phenylethyl phenylacetate], the “Scent Emission Amount” value [2] is reported as 50,855,859.

With `C=C(C)CCC[C@H](C)CCOC(=O)Cc1ccccc1` [rosinyl phenylacetate] the “Scent Emission Amount” value [2] was 56,492,946.
